Our source for the inhibition and Activity values is ChEMBL document CHEMBL2311511, “Dipeptide cis-cyclo(Leucyl-Tyrosyl) produced by sponge associated Penicillium sp. F37 inhibits biofilm formation of the pathogenic Staphylococcus epidermidis” (Bioorg Med Chem Lett, 2013).

Data set [1] deals with Staphylococcus epidermidis. Nature of the data set: Inhibition of Staphylococcus epidermidis ATCC 35984 biofilm formation at 0.25 mg/ml. The data set is classed as functional.
Data set [2] relates to Staphylococcus epidermidis. Nature of the data set: Inhibition of Staphylococcus epidermidis ATCC 35984 biofilm formation at 0.5 mg/ml. The data set is classed as functional.
Data set [3] deals with Staphylococcus epidermidis. Briefly: Inhibition of Staphylococcus epidermidis ATCC 35984 biofilm formation at 0.125 mg/ml. The data set is classed as functional, organism-based.
In data set [4] the test system is Staphylococcus epidermidis. Nature of the data set: Inhibition of Staphylococcus epidermidis ATCC 35984 biofilm formation at 1 mg/ml. The data set is classed as functional.
Data set [5] concerns Staphylococcus epidermidis. Nature of the data set: Inhibition of Staphylococcus epidermidis ATCC 35984 biofilm formation at 1 mg/ml after 24 hrs by scanning electron microscopy. The data set is classed as functional, organism-based.
In data set [6] the test system is Staphylococcus epidermidis. Briefly: Toxicity in Staphylococcus epidermidis ATCC 35984 assessed as growth inhibition at 0.25 to 1 mg/ml. The data set is classed as organism-based. The settings on record: in vivo.

Molecules are shown by their SMILES. Activity calls are given as the source filed them. No cut-off for these calls is given here.

Broadly, the inhibition is the change of the read-out against control, counted positive when it falls. In data set [1], `CC(C)C[C@@H]1NC(=O)[C@H](Cc2ccc(O)cc2)NC1=O` displayed an inhibition at 250 µg/mL of 60%. In addition, at 500 µg/mL the inhibition in data set [2] was 65%. The result in data set [3] was inactive. For the same molecule, the inhibition at 1000 µg/mL in data set [4] was 85%. Besides, the inhibition result in data set [5] was “Active”. Also, the Activity entry in data set [6] is “Non-toxic”.
